Data on 1 compound can be found in US20220265775A1, “COMPOSITIONS AND METHODS FOR TREATING PULMONARY EDEMA OR LUNG INFLAMMATION” (priority 2019, published 2022).

Series [1] in a line: Single dose toxicokinetic (TK) study, intratracheal instillation of T3, serum total T3 by chemiluminescence assay. The following applies: Sprague-Dawley, rat; for AUC(0-t) / Cmax / Cmax_D / Tmax / Vz_F_obs: inhaled or intranasal. Further details: species or system Sprague-Dawley rats. Here is the method: Sixty animals (plus two spare animals/sex/group) were anesthetized and dosed via intratracheal instillation of test or control materials for five consecutive days. On the day after the last dose a terminal blood collection was performed for clinical pathology, after which animals were euthanized and a gross examination of all organs was performed by a board certified veterinary pathologist. Select tissues were collected for histopathology. […] Terminal blood collection was performed at two designated time points per animal up to 24 hours after administration for toxicokinetic evaluation. TK animals were euthanized without further evaluation after the final blood collection. All animals were acclimated for a minimum of seven days prior to the dosing procedure. Animals underwent baseline observations and examinations prior to the initiation of the study, and clinical observations and body weight monitoring were performed throughout the in-life portion of the study. All animals received the same dose volume (0.3 mL) of either test or control materials. This maximum feasible dose (MFD) is constrained by the maximum volume that can be safely and reproducibly (over five days) instilled into lungs of rats weighing 250 g to 350 g, which was determined in preliminary toxicology studies to be 0.3 mL. Actual doses delivered are reported as both μg/kg body weight and μg/gm wet lung weight. The toxicity phase animals were 72-135 days of age at the time of initial dosing. Males weighed between 256.52 g and 307.50 g with a mean±standard deviation of 286.74±11.77 g, and females weighed between 250.46 g and 299.01 g with a mean±standard deviation of 260.64±10.34 g. The TK phase animals were 68-144 days of age at the time of initial dosing. Males weighed between 261.23 g and 316.19 g; females weighed between 250.06 g and 280.32 g.
For toxicokinetic experiments, rats were anesthetized with combination of ketamine 40 mg/kg to 200 mg/kg and xylazine 1 mg/kg to 7 mg/kg, intraperitoneally (IP), to effect for dosing procedures, and dosed intratracheally with liothyronine sodium injection as previously described. Depending on the duration of time between dosing and the first or second blood collection time points, animals either had blood collected while still anesthetized under the injectable anesthetics, or if recovered, they were anesthetized with Isoflurane 2-5% and oxygen 1-1.5 L/minute by inhalation anesthesia via nose cone, as needed, to maintain adequate anesthesia depth (assessed by toe pinch). Topical proparicaine anesthetic ophthalmic solution was applied to each eye prior to performing the first blood collection and allowed time to take effect. Collection of serum samples for TK analysis was as described for serum chemistry samples above, and samples were stored at ≤−70° C. until assayed. Animals were euthanized with EUTHASOL (Virbac Corp., Fort Worth, Tex.) ≥86 mg/kg IP to effect following the final blood collection.
For assessment of serum T3 levels samples were sent to the Fairview University of Minnesota Medical Center East Bank Diagnostic Laboratory for analysis, a clinical laboratory certified by CLIA and CAP. Prior to sending serum samples to the analytical lab each sample was diluted 1:4 or 1:8 in normal (0.9%) saline. […] Samples were analyzed by a chemiluminescence assay for total triiodothyronine (T3).
An evaluation of the TK analysis was performed by Dick Brundage, PhD, University of Minnesota. Toxicokinetic parameters were estimated using Phoenix 64 WinNonlin pharmacokinetic software version 7.0. (Pharsight Corp., Mountain View, Calif.). A non-compartmental (NCA) approach consistent with the route of administration was used for parameter estimation. […] Whenever possible, mean concentrations were derived from three animals/gender/time point. Parameters were estimated using sampling times relative to the start of each dose administration. […]

In a further series the test system is HO-1. In words: Western blot of total cellular HO-1 protein in RLE-6TN cells under hyperoxia. The series is classed as cell-based, rat. The following applies: T3 10^−6 M. The procedure: (§1) FIG. 10. HO-1 upregulation is required for T3-increased RLE-6TN cell survival in hyperoxia. […] The cells were then collected for Western Blot analysis. (B) The cells were incubated in 21% O2 and 5% CO2 for 72 hours in the present of HO-1 inhibitor Tin Protoporphyrin IX (10^−6M). […] Cell viability is assessed with trypan blue. The number of viable cells under specific conditions is presented as a percentage of the cell number related to hyperoxia alone. Data are mean±s.d. of three independent experiments with *=P<0.05; **=P<0.01.
The cells were lysed in lysis buffer containing 20 mM Tris HCl (pH 7.5), 150 mM NaCl, 1 mM EDTA, 1 mM EGTA, 1% (vol/vol) Triton X-100 with protease inhibitors (1 mM PMSF, 2 μg/ml pepstatin, and 10 μg/ml each of aprotinin and leupeptin), and phosphatase inhibitors (2.5 mM sodium pyrophosphate, 1 mM β-glycerophosphate, and 1 mM Na3VO4). The lysate was drawn 10 times through a 25-gauge needle on ice for further lysis and then was centrifuged at 13,000 rpm for 15 minutes at 4° C. The supernatant was collected, and the protein concentrations were determined by use of the BCA protein assay kit (Sigma-Aldrich, St. Louis, Mo.). Immediately after this step, equal amounts of protein were subjected to Western blotting analysis.

A further series has as its system RLE-6TN cells. Put plainly: RLE-6TN cell survival under hyperoxia and recovery, viable cells counted by trypan blue exclusion. The series is classed as cell-based, rat. Here is the method:
FIG. 7. […] The cells were cultured in DMEM/F12 with 10% FBS in 21% O2 and 5% CO2 overnight. […] The viable cells are counted immediately after 72-hour hyperoxia exposure. Cell viability is assessed with trypan blue. The amount of viable cells under specific conditions is presented as a percentage of the cell number from hyperoxia alone. Data are mean±s.d. of four independent experiments with *=P<0.05; **=P<0.01.
FIG. 8. […] In both (A) and (B), the number of viable cells under specific conditions is presented as a percentage of the cell number related to hyperoxia alone in the same experiment. Data are mean s.d. of four independent experiments with *=P<0.05; **=P<0.01.
as §1
FIG. 11. PI3K inhibitor wortmannin blocked T3-induced cell survival in hyperoxia. […] Cell viability is assessed with trypan blue. The number of viable cells under specific conditions is presented as a percentage of the cell number related to hyperoxia alone. Data are mean±s.d. of four independent experiments with *=P<0.05; **=P<0.01.
At the end of the hyperoxia exposure period, the viable cells were counted by trypan blue dye exclusion.

Series [2] is described as follows: Preliminary tolerability of intratracheal instillation of liothyronine sodium in rats. In kind it is in vivo. The following applies: preliminary studies, pH of >10.0 as supplied commercially.
Protocol: Therefore, the liothyronine sodium and the vehicle were adjusted to neutral pH (6.0-8.0) with sterile 1.0 N HCl (Sigma-Aldrich, St. Louis, Mo.) added aseptically in a biosafety cabinet prior to intratracheal instillation into animals. Using aseptic technique, vials of liothyronine sodium were opened and the entire contents were transferred into sterile 1.5 mL Eppendorf tubes. 80-90 μL of 1.0 N HCl was added to the tube and gently vortexed, and the pH was measured using pH test strips (pH 4.5 to 10.0, Ricca Chemical Co., Arlington, Tex.). Additional HCl was titrated in gradually, as needed, until the pH was in the desired range. […] This solution was stored at 4° C. and used for up to 26 hours after pH adjustment procedure. […] The vehicle was also adjusted to neutral pH (6.0-8.0) with 1.0 N HCl as described above. Using aseptic technique the vehicle was filter sterilized and aliquoted into 21 sterile disposable tubes (5 mL each) and stored at 4° C., and a new tube was opened for each day of use. Normal Saline (0.9% Sodium Chloride Injection USP, B. Braun Medical, Inc., Bethlehem, Pa.), was stored at room temperature. A new package was opened for each day of use.

For `N[C@@H](Cc1cc(I)c(Oc2ccc(O)c(I)c2)c(I)c1)C(=O)O` [T3, triiodothyronine], the concentration at 15 min in series [1] (in vivo, male rats, individual animals, 15 min, single intratracheal dose 2.7 μg (~10.0 μg/kg)) came out at 2.44 ng/mL. Also, in series [1] (female), the Cl_F_obs is 30.10 mL/h, the HL_Lambda_z came to 2.85 h, the AUC(0-t) was 64.1 ng·h/mL and the Cmax turned out to be 16.5 ng/mL. Further, in series [1] (female), the Cmax_D was determined as 6.12 ng/mL/µg, the Tmax turned out to be 2 h and the Vz_F_obs was 123.60 mL. Also, in series [1] (male), the Cl_F_obs is 74.29 mL/h, the HL_Lambda_z is 3.17 h, the AUC(0-t) amounted to 25.4 ng·h/mL and the Cmax came out at 6.6 ng/mL. For the same compound, in series [1] (male), the Cmax_D worked out at 2.44 ng/mL/µg, the Tmax was 1 h and the Vz_F_obs is reported as 339.44 mL. Besides, the “total cellular protein of HO-1” value in the series with HO-1 is on record as “significantly enhanced total cellular protein of HO-1”. The “number of viable AT2 cells at 48 hours of recovery” value in the series on RLE-6TN cells (90% oxygen for 24 or 48 hours, compound present only during recovery in 21% O2) is listed as “significantly increased the number of viable AT2 cells”. Moreover, the “increase in number of surviving cells compared with hyperoxia control” value in the series with RLE-6TN cells (90% oxygen for 72 hours, 10^−6M) is roughly 2.5 fold. Moreover, the “protective effect on viable AT2 cell number after recovery in room air” value with RLE-6TN cells (hyperoxia 72 hours with T3, then room air 72 hours with no supplemental T3) was “persisted and was of similar magnitude”. Further, the “tolerability of intratracheal instillation” value in series [2] is “do not tolerate”.
